Data published in patent US20220062240A1, “METHODS OF TREATING CANCER USING A CLK INHIBITOR” (BioSplice Therapeutics, Inc., priority 2018, published 2022).
pEC50: −log10 of the molar value. Where two headings read alike, the source gives them in different places.

Legend:
DU4475 = assay: CellTiter-Glo Viability Assay, breast cancer; type: cell-based; details: Homo sapiens, DU-4475, 96 h; DU4475, breast cancer, four days; read-out: EC50
Description: (§1) Fifty-one human cancer cell lines (breast cancer (8 cell lines), colorectal cancer (6 cell lines), haematopoietic & lymphoid tumors (13 cell lines), liver cancer (3 cell lines), lung cancer (4 cell lines), ovarian cancer (4 cell lines), pancreatic cancer (8 cell lines), and prostate cancer (5 cell lines)) were tested to determine the effects of representative compounds of Formulas (I)-(XII) on cellular proliferation, as evaluated using the CellTiter-Glo® Viability Assay.
(§2) For the Cell Viability Assays, cells were plated at 300-3,000 cells/well in 384-well plates in their respective media containing 1% Penicillin-Streptomycin and incubated for four days at 37° C. and 5% CO2. Twenty-eight replicates of DMSO-treated cells served as controls and cells treated with compound were performed in duplicate.
(§3) After incubation, 10 μL of CellTiter-Glo® (Promega) was added to each well allowed to incubate for approximately 12 minutes. This reagent results in cell lysis and generation of a luminescent signal proportional to the amount of ATP present. The amount of ATP is directly proportional to the number of metabolically active, viable cells present in culture. The CellTiter-Glo® Assay generates a luminescent signal, produced by the luciferase reaction (Promega.com).
(§4) After incubation, the luminescence signal was read using an EnVision™ Multilabel Plate Reader (Perkin Elmer). Dose-response curves were generated and EC50 concentration values were calculated using Dotmatics' Studies Software (Bishops Stortford, UK).

CAMA1 = assay: CellTiter-Glo Viability Assay, breast cancer; type: cell-based; details: Homo sapiens, CAMA-1, 96 h; CAMA1, breast cancer, four days; read-out: EC50
Description: as §1, §2, §3, §4

T47D = assay: CellTiter-Glo Viability Assay, breast cancer; type: cell-based; details: Homo sapiens, 96 h, breast cancer, four days, read-out: EC50
Description: as §1, §2, §3, §4

ZR-75-1 = assay: CellTiter-Glo Viability Assay, breast cancer; type: cell-based; details: Homo sapiens, 96 h; ZR-75-1, breast cancer, four days; read-out: EC50
Description: as §1, §2, §3, §4

MCF7 = assay: CellTiter-Glo Viability Assay, breast cancer; type: cell-based; details: Homo sapiens, 96 h; MCF7, breast cancer, four days; read-out: EC50
Description: as §1, §2, §3, §4

HCC1599 = assay: CellTiter-Glo Viability Assay, breast cancer; type: cell-based; details: Homo sapiens, 96 h; HCC1599, breast cancer, four days; read-out: EC50
Description: as §1, §2, §3, §4

BT-549 = assay: CellTiter-Glo Viability Assay, breast cancer; type: cell-based; details: Homo sapiens, 96 h; BT-549, breast cancer, four days; read-out: EC50
Description: as §1, §2, §3, §4

[1] = test system: prostate cancer (5 cell lines); assay: CellTiter-Glo Viability Assay, prostate cancer; type: cell-based; details: Homo sapiens
Description: as §1, §2, §3, §4

CLK2 = target: T1, CLK2 (Homo sapiens, UniProt P49760); assay: CLK2 kinase activity assay (Z-lyte, Ser/Thr 6 peptide); type: biochemical; details: recombinant CLK2 kinase, ATP 60 μM; read-out: EC50
T1 construct: purchased Thermo Fisher (Life Technologies), Z'-LYTE Kinase Assay Kits
T1 sequence (P49760 whole entry): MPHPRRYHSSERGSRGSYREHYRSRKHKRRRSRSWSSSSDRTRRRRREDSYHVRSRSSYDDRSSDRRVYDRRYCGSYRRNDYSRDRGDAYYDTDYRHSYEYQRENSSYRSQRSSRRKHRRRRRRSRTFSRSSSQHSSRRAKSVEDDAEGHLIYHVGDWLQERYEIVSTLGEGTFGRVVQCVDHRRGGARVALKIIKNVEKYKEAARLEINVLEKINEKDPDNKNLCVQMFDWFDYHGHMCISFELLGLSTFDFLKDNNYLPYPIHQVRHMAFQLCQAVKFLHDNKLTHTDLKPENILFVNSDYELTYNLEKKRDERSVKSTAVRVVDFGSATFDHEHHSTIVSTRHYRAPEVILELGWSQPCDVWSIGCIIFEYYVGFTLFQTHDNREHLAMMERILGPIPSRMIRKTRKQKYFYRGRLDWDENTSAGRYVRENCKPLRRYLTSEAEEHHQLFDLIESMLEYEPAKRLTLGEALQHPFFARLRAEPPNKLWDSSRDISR
Description: All reactions were performed in duplicate.

all 50 cell lines = assay: CellTiter-Glo Viability Assay, average across all cell lines; type: cell-based; details: Homo sapiens; across all 50 cell lines; read-out: average EC50 for inhibition of cancer cell proliferation
Description: as §1, §2, §3, §4

[2] = test system: ovarian cancer (4 cell lines); assay: CellTiter-Glo Viability Assay, ovarian cancer; type: cell-based; details: Homo sapiens, inhibition of cancer cell proliferation
Description: as §1, §2, §3, §4

[3] = test system: pancreatic cancer (8 cell lines); assay: CellTiter-Glo Viability Assay, pancreatic cancer; type: cell-based; details: Homo sapiens, inhibition of cancer cell proliferation
Description: as §1, §2, §3, §4

[4] = test system: colorectal cancer (6 cell lines); assay: CellTiter-Glo Viability Assay, colorectal cancer; type: cell-based; details: Homo sapiens, inhibition of cancer cell proliferation
Description: as §1, §2, §3, §4

[5] = test system: liver cancer (3 cell lines); assay: CellTiter-Glo Viability Assay, liver cancer; type: cell-based; details: Homo sapiens, inhibition of cancer cell proliferation
Description: as §1, §2, §3, §4

[6] = test system: lung cancer (4 cell lines); assay: CellTiter-Glo Viability Assay, lung cancer; type: cell-based; details: Homo sapiens, inhibition of cancer cell proliferation
Description: as §1, §2, §3, §4

[7] = test system: haematopoietic & lymphoid tumors (13 cell lines); assay: CellTiter-Glo Viability Assay, haematopoietic & lymphoid tumors; type: cell-based; details: Homo sapiens, inhibition of cancer cell proliferation
Description: as §1, §2, §3, §4

CLK3 = CLK3 (Homo sapiens, UniProt P49761); assay: CLK3 kinase activity assay (Z-lyte, Ser/Thr 18 peptide)
CLK3, sequence (P49761 whole entry): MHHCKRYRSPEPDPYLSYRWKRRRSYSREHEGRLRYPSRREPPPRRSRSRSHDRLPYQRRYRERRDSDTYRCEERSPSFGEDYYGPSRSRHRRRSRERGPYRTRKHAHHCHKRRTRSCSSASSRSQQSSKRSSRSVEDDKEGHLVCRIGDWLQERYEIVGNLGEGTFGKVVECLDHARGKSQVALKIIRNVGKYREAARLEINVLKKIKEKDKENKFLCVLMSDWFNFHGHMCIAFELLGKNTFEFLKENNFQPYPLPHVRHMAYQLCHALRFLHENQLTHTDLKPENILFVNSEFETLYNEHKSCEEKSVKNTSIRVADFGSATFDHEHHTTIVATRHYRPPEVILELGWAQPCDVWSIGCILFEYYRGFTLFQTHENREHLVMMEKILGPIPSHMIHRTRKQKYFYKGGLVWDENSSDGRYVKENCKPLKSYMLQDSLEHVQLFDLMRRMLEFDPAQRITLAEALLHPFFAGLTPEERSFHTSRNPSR

With `CN1CCN(c2cc(C(=O)Nc3cc4cc(-c5cn(C)nn5)ccc4cn3)ccn2)CC1` [Compound 14] the pEC50 (DU4475) was 6.86, the pEC50 (CAMA1) was 6.48 and the pEC50 (T47D) was 6.30. For the same compound, the pEC50 (ZR-75-1) was 6.39, the pEC50 (MCF7) was 6.14 and the pEC50 (HCC1599) was 6.78. For the same compound, the pEC50 (BT-549) was 6.47, the pEC50 ([1]; DU-145, read-out: Prostate cancer EC50 Du-145) was 6.49 and the pEC50 ([1]; PC-3, PC3 cell line, inhibition of cancer cell proliferation, read-out: Prostate cancer EC50 PC3) was 6.62. The pEC50 ([1]; 22Rv1 cell line, inhibition of cancer cell proliferation, read-out: Prostate cancer EC50 22Rv1) was 6.58, the pEC50 ([1]; LNCap clone FGC cell line, inhibition of cancer cell proliferation, read-out: Prostate cancer EC50 LNCap clone FGC) was 6.37 and the pEC50 ([1]; VCaP (Sigma) cell line, inhibition of cancer cell proliferation, read-out: Prostate cancer EC50 VCaP (Sigma)) was 6.23. The pEC50 (CLK2) was 8.70, the pEC50 (all 50 cell lines) was 6.54 and the EC50 ([2]; PA-1, PA1 cell line, read-out: Ovarian cancer, EC50 (μM) PA1) was 0.186 µM. The EC50 ([2]; TOV112D, TOV-112D cell line, read-out: Ovarian cancer, EC50 (μM) TOV-112D) was 0.171 µM, the EC50 ([2]; OV-90 cell line, read-out: Ovarian cancer, EC50 (μM) OV-90) was 0.464 µM and the EC50 ([2]; OVCAR-3 cell line, read-out: Ovarian cancer, EC50 (μM) OVCAR-3) was 0.116 µM. It also gave a pEC50 ([3]; BXPC-3, BxPC3 cell line, read-out: Pancreatic cancer, EC50 BxPC3) of 6.32, a pEC50 ([3]; CAPAN-1, Capan1 cell line, read-out: Pancreatic cancer, EC50 Capan1) of 6.65 and a pEC50 ([3]; Capan-2, Capan2 cell line, read-out: Pancreatic cancer, EC50 Capan2) of 6.33. The pEC50 ([3]; MIA PaCa-2 cell line, read-out: Pancreatic cancer, EC50 MIA PaCa-2) was 6.87, the pEC50 ([3]; PANC 05.04 cell line, read-out: Pancreatic cancer, EC50 PANC 05.04) was 6.49 and the pEC50 ([3]; PANC-1 cell line, read-out: Pancreatic cancer, EC50 PANC-1) was 6.37. For the same compound, the pEC50 ([3]; UPAFII cell line, read-out: Pancreatic cancer, EC50 UPAFII) was 6.80, the EC50 ([4]; HCT-116, HCT116 cell line, read-out: Colorectal cancer, EC50 (μM) HCT116) was 0.14 µM and the EC50 ([4]; HT-29, HT29 cell line, read-out: Colorectal cancer, EC50 (μM) HT29) was 0.295 µM. It also gave an EC50 ([4]; SW-620, SW620 cell line, read-out: Colorectal cancer, EC50 (μM) SW620) of 0.113 µM, an EC50 ([4]; DLD-1 cell line, read-out: Colorectal cancer, EC50 (μM) DLD-1) of 0.161 µM and an EC50 ([4]; SW48 cell line, read-out: Colorectal cancer, EC50 (μM) SW48) of 0.096 µM. For the same compound, the EC50 ([4]; SW480 cell line, read-out: Colorectal cancer, EC50 (μM) SW480) was 0.191 µM, the pEC50 ([5]; SNU-398, SNU398 cell line, read-out: Liver cancer, EC50 SNU398) was 7.16 and the pEC50 ([5]; HEPG2 cell line, read-out: Liver cancer, EC50 HEPG2) was 6.37. The pEC50 ([5]; PLC/PRF/5 cell line, read-out: Liver cancer, EC50 PLC/PRF/5) was 6.27, the EC50 ([6]; A-427, A427 cell line, read-out: Lung cancer, EC50 (μM) A427) was 0.303 µM and the EC50 ([6]; HCC78, HCC-78 cell line, read-out: Lung cancer, EC50 (μM) HCC-78) was 0.467 µM. The EC50 ([6]; NCI-H460 cell line, read-out: Lung cancer, EC50 (μM) NCI-H460) was 0.268 µM, the EC50 ([6]; NCI-H522 cell line, read-out: Lung cancer, EC50 (μM) NCI-H522) was 0.142 µM and the EC50 ([7]; DND41, DND-41 cell line, read-out: Haematopoietic & Lymphoid tumors, EC50 (μM) DND-41) was 0.216 µM. The EC50 ([7]; MV4-11, MV-4-11 cell line, read-out: Haematopoietic & Lymphoid tumors, EC50 (μM) MV-4-11) was 0.101 µM, the EC50 ([7]; Rec1, REC-1 cell line, read-out: Haematopoietic & Lymphoid tumors, EC50 (μM) REC-1) was 0.08 µM and the EC50 ([7]; SU-DHL-4, SUDHL4 cell line, read-out: Haematopoietic & Lymphoid tumors, EC50 (μM) SUDHL4) was 0.317 µM. It also gave an EC50 ([7]; HL-60 cell line, read-out: Haematopoietic & Lymphoid tumors, EC50 (μM) HL-60) of 0.719 µM, an EC50 ([7]; JM1 cell line, read-out: Haematopoietic & Lymphoid tumors, EC50 (μM) JM1) of 0.093 µM and an EC50 ([7]; JURKAT, Clone E6-1 cell line, read-out: Haematopoietic & Lymphoid tumors, EC50 (μM) JURKAT, Clone E6-1) of 0.511 µM. It also gave an EC50 ([7]; JeKo-1 cell line, read-out: Haematopoietic & Lymphoid tumors, EC50 (μM) JeKo-1) of 0.073 µM, an EC50 ([7]; KASUMI-1 cell line, read-out: Haematopoietic & Lymphoid tumors, EC50 (μM) KASUMI-1) of 0.174 µM and an EC50 ([7]; Loucy cell line, read-out: Haematopoietic & Lymphoid tumors, EC50 (μM) Loucy) of 0.192 µM. It also gave an EC50 ([7]; MOLT-4 cell line, read-out: Haematopoietic & Lymphoid tumors, EC50 (μM) MOLT-4) of 0.327 µM, an EC50 ([7]; TF-1 cell line, read-out: Haematopoietic & Lymphoid tumors, EC50 (μM) TF-1) of 0.367 µM and an EC50 ([7]; TOLEDO cell line, read-out: Haematopoietic & Lymphoid tumors, EC50 (μM) TOLEDO) of 0.104 µM. The pEC50 (CLK3) was 7.62.
